Results reported in US10738049B2, “N-{3-[3-cyclopropyl-5-(2-fluoro-4-iodophenylamino)-6,8-dimethyl-2,4,7-trioxo-3,4,6,7-tetrahydro-2H-pyrido[4,3-D]pyrimidin-1-YL]-phenyl}-cyclopropanecarboxamide dimethyl sulfoxide solvate as an MEK1/2 inhibitor” (R-PHARM JOINT STOCK COMPANY (R-PHARM, JSC), priority 2016, dated 2020).
Values after ≈ are worked out from the molar mass of the structure shown. Where two headings read alike, the source gives them in different places.

Assays:
[1] = Determination of thermodynamic solubility; assay type: physicochemical; conditions: for solubility at 24 h: 25 °C, thermodynamic from solid
Description: Use additional quantities of the substances until the solution becomes turbid. Incubate vials with the solution for 24 h at 25° C. with mixing to achieve equilibrium between saturated solution and precipitate. Upon equilibration filter 200 μL of the solution (in duplicate) through a 96-well filter plate (Millipore) to separate the precipitate. Determine concentrations of the compounds in the filtrate by spectrophotometry using standard calibration curve. Carry out measurement of optical absorption spectrum of the substance and plot calibration curve at the selected wavelength (usually corresponding to the substance absorption maximum λmax). Calculate concentration of the substance in the filtrate (i.e., solubility) by the following equation: Solubility=(ODλmax filtrate−ODλmax blank)/Slope×1.67×Filtrate dilution,
ODλmax filtrate=absorbance of the filtrate:
ODλmax blank=absorbance of the blank solution without the substance;
Slope=slope of the calibration curve;
1.67=dilution factor for the filtrate in acetonitrile;
Filtrate dilution=dilution factor for the filtrate in the buffer.

MEK1 = target: T1, MEK1 (Homo sapiens, UniProt Q02750); experiment: MEK1 kinase activity, Z'-LYTE screening platform; assay type: biochemical; conditions: 100 μM ATP, 1% DMSO
T1 construct: purchased Life Technologies
Description: Assay. The substances were tested for the effect on MEK1 kinase activity using Z′-LYTE screening platform (Life Technologies). Concentration of DMSO in the reaction mixture was 1%. Dilute 100 nL of 100-fold sinks of the substances under study in 100% DMSO in 2.4 μL of kinase buffer (50 mM of HEPES pH 7.5, 0.01% BRIJ-35, 10 mM of mgCl2, 1 mM of EGTA) and add to 5 μL of 2-fold Substrate/Kinase mixture (MEK1/inactivated MARK1 (ERK2)/Ser/Thr03, final content 0.08-0.31 ng of MEK1, 105 ng of inactivated MARK1 (ERK2), and 2 μM of Ser/Thr03) in 384-well plate (black, small-volume manufactured by Corning, κaT. #3676). Pre-incubate the substances with kinases for 10 min at ambient temperature. After that add 2.5 μL of 4-fold ATP solution to start the reaction (final concentration of ATP in the reaction mixture is 100 μM). After 30 sec of incubation on a shaker incubate the reaction for 60 min at ambient temperature. Then add 5 μL of Reagent B (Life Technologies) diluted as 1:1024 and incubate for 60 min more at ambient temperature. Measure fluorescence with excitation at 400 nm and emission at 445 nm and 520 nM.
Calculate % phosphorylation as follows:
Calculate % inhibition as follows:
C100%=average coumarin emission signal, 100% phosphorylation control;
C0%=average coumarin emission signal, 0% phosphorylation control;
F100%=average fluorescein emission signal, 100% phosphorylation control; […]

[2] = Body weight and deaths during treatment in the xenograft study
Description: The animals were treated with the test products for 21 days.
When average tumor size reached 100-200 mM^3 the animals were subdivided into experimental groups and treatment with the test drugs was started. The products were administered intragastrically daily, while the control group received the solvent.
Also, health and behavior of animals were monitored, numbers of lethal outcomes and tumor regressions were recorded: Regression=(Vini−Vfin)/Vi×100%,
Measurement of animal weights was carried out 3 times a week.

[3] = test system: A375 human melanoma xenograft; experiment: Study of efficiency in human melanoma xenograft model; assay type: in vivo, NMRI nude female mice; conditions: for T/C / Vavg (average tumor volume): after 21 days of treatment
Description: Study of efficiency in human melanoma xenograft model. The study was carried out in ProQinase GmbH Freiburg, Breisacher Str. 117, D-79106 Freiburg, GERMANY.
A375 human melanoma cells were cultivated in vials with DMEM medium with addition of 10% FBS in a humid atmosphere containing 95% of air and 5% of CO2 at 37° C. Cancer cells were passaged to animals after an adaptation period. For that end the cells were collected using TrypLE Express (Invitrogen), washed and suspended in sterile PBS to the final concentration of 3×10^7 cells/mL. This cell suspension was injected subcutaneously (SC) in mice left flanks (3×10^6 cells or 100 μL per mouse).
Measurement of subcutaneously implanted tumors was carried out 2 times a week starting from the day of cells introduction. Tumor volume (mm^3) was determined by the equation: V=L×W^2/2,
where L corresponds to maximum and W to minimum tumor diameter (mm). The measurements were carried out using a slide caliper.
The study included calculation of tumor growth inhibition values: T/C=Vexp/Vctrl×100%,
Vctrl=average tumor volume in the control group;
Vexp=average tumor volume in the experimental group.
Vini=initial tumor volume at the start of treatment;
Vfin=tumor volume at the end of treatment.

[4] = single-dose oral, mice; cited from earlier work
[5] = cited from earlier work
[6] = 4% dimethyl sulfoxide and 96% corn oil, oil or lipid, 4% dimethyl sulfoxide, 96% corn oil, read-out: Solubility in a mixture of 4% sulfoxide and 96% corn oil
[7] = dimethyl sulfoxide, organic solvent or mixture, read-out: Solubility in dimethyl sulfoxide
[8] = water, water, read-out: Solubility in water
[9] = 0.3 mg/kg intragastrically daily
[10] = 1.0 mg/kg intragastrically daily
[11] = 3.0 mg/kg intragastrically daily
[12] = 10.0 mg/kg intragastrically daily

T1 sequence (Q02750 whole entry): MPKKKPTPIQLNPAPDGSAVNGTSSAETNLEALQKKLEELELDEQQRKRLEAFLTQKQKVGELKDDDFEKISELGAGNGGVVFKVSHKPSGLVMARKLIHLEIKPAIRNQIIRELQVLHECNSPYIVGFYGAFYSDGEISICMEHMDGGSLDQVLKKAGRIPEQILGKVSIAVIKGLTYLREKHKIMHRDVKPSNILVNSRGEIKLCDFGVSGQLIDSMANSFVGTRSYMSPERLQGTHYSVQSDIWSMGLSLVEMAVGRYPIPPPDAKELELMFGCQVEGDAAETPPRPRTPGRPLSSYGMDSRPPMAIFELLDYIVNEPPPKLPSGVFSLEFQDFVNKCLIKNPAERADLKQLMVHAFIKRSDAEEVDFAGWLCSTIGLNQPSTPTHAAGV

Cc1c(=O)n(C)c(Nc2ccc(I)cc2F)c2c(=O)n(C3CC3)c(=O)n(-c3cccc(NC(=O)C4CC4)c3)c12 [Compound of formula 1, N-{3-[3-cyclopropyl-5-(2-fluoro-4-iodophenylamino)-6,8-dimethyl-2,4,7-trioxo-3,4,6,7-tetrahydro-2H-pyrido[4,3-d]pyrimidin-1-yl]-phenyl}-cyclopropanecarboxamide dimethyl sulfoxide solvate]
solubility at 24 h [1, 6]: 7000 µg/mL
solubility at 24 h [1, 7]: 47000 µg/mL
Solubility in dimethyl sulfoxide relative to Trametinib ([1]; dimethyl sulfoxide, ratio to Trametinib): more than 2 times
solubility at 24 h [1, 8]: < 1000 µg/mL
IC50 (MEK1): 8.02 nM
Animal body weight loss as compared to the treatment start date ([2]; 10 mg/kg, throughout the study): not more than 20%
Animal deaths ([2]; any of the doses studied (up to 10 mg/kg)): did not cause animal deaths
Effect on tumor growth ([3]; 0.3 mg/kg intragastric): no effect on tumor growth
T/C [3, 9]: 39.5%
Vavg (average tumor volume) [3, 9]: 834.3 mm^3
Animals with tumor regression ([3]; 1 mg/kg): three of eight
T/C [3, 10]: 6.7%
Vavg (average tumor volume) [3, 10]: 140.5 mm^3
Animals with tumor regression ([3]; 3 mg/kg): 7/8
T/C [3, 11]: 4.0%
Vavg (average tumor volume) [3, 11]: 84.5 mm^3
Animals with tumor regression ([3]; 10 mg/kg): 8/8
T/C [3, 12]: 1.2%
Vavg (average tumor volume) [3, 12]: 26.1 mm^3

CC(=O)Nc1cccc(-n2c(=O)n(C3CC3)c(=O)c3c(Nc4ccc(I)cc4F)n(C)c(=O)c(C)c32)c1 [Mekinist, Trametinib dimethyl sulfoxide, reference compound]
Animal deaths ([2]; 3 mg/kg intragastric for 9 days): two
Animals with tumor regression ([3]; 3 mg/kg intragastric): 100 % animals
T/C [3, 11]: 1.0%
Vavg (average tumor volume) [3, 11]: 21.1 mm^3
LD50 [4]: > 2000 mg/kg

CC(=O)Nc1cccc(-n2c(=O)n(C3CC3)c(=O)c3c(Nc4ccc(I)cc4F)n(C)c(=O)c(C)c32)c1 [Trametinib, reference compound]
solubility at 24 h [1, 6]: 3000 µg/mL (≈ 4.87 mM)
solubility at 24 h [1, 7]: 22000 µg/mL (≈ 35.7 mM)
solubility at 24 h [1, 8]: < 1000 µg/mL
Solubility in aqueous media ([5]; between pH=2 and pH=8): practically insoluble
Solubility in organic solvents ([5]; organic solvents including highly polar ones): very slightly soluble
